Type in all cases: cell-based
The target in experiment [1] is T1, GLP-1R (Homo sapiens, UniProt P43220). Nature of the experiment: HitHunter cAMP assay (GLP-1R). The note with it: cAMP; for Emax: read-out: (Emax) GLP-1R. The essentials:
(§1)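 Agonist stimulation lasts 30 min at room temperature on 10,000 cells per well, with phosphodiesterase blocked by 625 μM IBMX. Accumulated cAMP is quantified by competitive antibody luminescence after overnight development.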

Experiment [2] deals with T1, GLP-1R. The experiment in a line: PathHunter β-arrestin assay. A digest of the protocol:
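Recruitment of β-arrestin is measured by luminescence after cells, plated overnight, receive serially diluted agonist for 90 min at 37 °C in medium with 0.2% BSA. Detection reagent then develops for 3 h at room temperature, protected from light.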

The next experiment addresses T2, GIP-R (Homo sapiens, UniProt P48546).
T2 sequence (P48546 22-466): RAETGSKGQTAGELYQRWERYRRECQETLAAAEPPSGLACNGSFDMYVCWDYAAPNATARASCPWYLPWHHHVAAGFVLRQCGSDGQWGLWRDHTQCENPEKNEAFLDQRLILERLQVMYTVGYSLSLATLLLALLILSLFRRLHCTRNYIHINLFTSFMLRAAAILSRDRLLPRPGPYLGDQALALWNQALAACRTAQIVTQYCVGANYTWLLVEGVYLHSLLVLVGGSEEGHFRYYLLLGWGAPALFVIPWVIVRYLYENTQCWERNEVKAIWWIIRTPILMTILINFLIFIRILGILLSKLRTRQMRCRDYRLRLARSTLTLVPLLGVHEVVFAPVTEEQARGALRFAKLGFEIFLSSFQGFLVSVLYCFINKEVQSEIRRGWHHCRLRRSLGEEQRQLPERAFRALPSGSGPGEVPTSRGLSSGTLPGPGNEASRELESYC
The experiment in a line: HitHunter cAMP assay (GIP-R). The note with it: cAMP; for Emax: read-out: (Emax) GIP-R. The essentials:
as §1
(Cyclic AMP is a second messenger, typically raised through Gs and lowered through Gi signalling.)

[3] abbreviates: Table 3, read-out: EC50 GLP-1R/nM.
The mark [4] stands for this setting: Table 3A, read-out: EC50 GLP-1R/nM.
The mark [5] stands for this setting: PathHunter β-arrestin assay, read-out: β-arrestin activity EC50.
Setting [6] is: Table 3, read-out: EC50 GIP-R/nM.
The mark [7] stands for this setting: Table 3A, read-out: EC50 GIP-R/nM.

Where two headings read alike, the source gives them in different places. Where only a bound is given, the exact number is not on record here.

T1 sequence (P43220 24-463): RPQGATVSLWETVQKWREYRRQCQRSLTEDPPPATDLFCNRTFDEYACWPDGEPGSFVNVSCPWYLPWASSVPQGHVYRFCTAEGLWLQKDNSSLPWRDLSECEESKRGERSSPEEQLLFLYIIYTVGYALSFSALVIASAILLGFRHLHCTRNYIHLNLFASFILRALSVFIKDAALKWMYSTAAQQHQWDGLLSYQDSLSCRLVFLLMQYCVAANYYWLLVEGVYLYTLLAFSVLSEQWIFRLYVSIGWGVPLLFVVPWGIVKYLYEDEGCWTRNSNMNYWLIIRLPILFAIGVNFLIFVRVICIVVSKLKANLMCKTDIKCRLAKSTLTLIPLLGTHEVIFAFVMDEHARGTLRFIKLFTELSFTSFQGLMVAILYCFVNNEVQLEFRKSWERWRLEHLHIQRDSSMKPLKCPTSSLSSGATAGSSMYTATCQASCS

The term Emax denotes the greatest response seen or fitted, relative to the assay's reference. As to `CC[C@H](C)[C@H](NC(=O)[C@H](CO)NC(=O)[C@H](Cc1ccc(O)cc1)NC(=O)[C@H](CC(=O)O)NC(=O)[C@H](CO)NC(=O)[C@@H](NC(=O)[C@H](Cc1ccccc1)NC(=O)[C@@H](NC(=O)CNC(=O)[C@H](CCC(=O)O)NC(=O)CCCC(=O)NCCN1C(=O)c2ccccc2C1=O)[C@@H](C)O)[C@@H](C)O)C(=O)N[C@@H](Cc1ccc(O)cc1)C(=O)N[C@@H](CC(C)C)C(=O)N[C@@H](CC(=O)O)C(=O)N[C@@H](CCCCN)C(=O)N[C@@H](CCC(N)=O)C(=O)N[C@@H](C)C(=O)N[C@@H](C)C(=O)NC(C)(C)C(=O)N[C@@H](CCC(=O)O)C(=O)N[C@@H](Cc1ccccc1)C(=O)N[C@H](C(=O)N[C@@H](CC(N)=O)C(=O)N[C@@H](Cc1c[nH]c2ccccc12)C(=O)N[C@@H](CC(C)C)C(=O)N[C@@H](CC(C)C)C(=O)N[C@@H](C)C(=O)NCC(=O)NCC(=O)N1CCC[C@H]1C(=O)N[C@@H](CO)C(=O)N[C@@H](CO)C(=O)NCC(=O)N[C@@H](C)C(=O)N1CCC[C@H]1C(=O)N1CCC[C@H]1C(=O)N1CCC[C@H]1C(=O)N[C@@H](CO)C(=O)N[C@@H](CCCCN)C(N)=O)C(C)C` [Compound 188], the EC50 on GLP-1R [1] (EC50 GLP-1R/nM, Table 3) is 10 to 100 nM; at GLP-1R [1] (EC50 GLP-1R/nM, Table 3A) it was 10 to 100 nM; on GLP-1R [2], over 1000 nM; at GIP-R (EC50 GIP-R/nM, Table 3), 1 to 10 nM; on GIP-R (EC50 GIP-R/nM, Table 3A), 1 to 10 nM. Moreover, the maximum response (Emax) on GLP-1R [1] (Table 3) is 101%; on GLP-1R [1] (Table 3A), 101%; at GIP-R (Table 3), 107%; at GIP-R (Table 3A), 107%.

For `CCCCCCCCCCCCCCCC(=O)N[C@@H](CCC(=O)NCCCC[C@H](NC(=O)[C@H](CO)NC(=O)[C@@H]1CCCN1C(=O)[C@@H]1CCCN1C(=O)[C@@H]1CCCN1C(=O)[C@H](C)NC(=O)CNC(=O)[C@H](CO)NC(=O)[C@H](CO)NC(=O)[C@@H]1CCCN1C(=O)CNC(=O)CNC(=O)[C@H](C)NC(=O)[C@H](CC(C)C)NC(=O)[C@H](CC(C)C)NC(=O)[C@H](Cc1c[nH]c2ccccc12)NC(=O)[C@H](CC(N)=O)NC(=O)[C@@H](NC(=O)[C@H](Cc1ccccc1)NC(=O)[C@H](CCC(=O)O)NC(=O)C(C)(C)NC(=O)[C@H](C)NC(=O)[C@H](C)NC(=O)[C@H](CCC(N)=O)NC(=O)[C@H](CCCCN)NC(=O)[C@H](CC(=O)O)NC(=O)[C@H](CC(C)C)NC(=O)[C@H](Cc1ccc(O)cc1)NC(=O)[C@@H](NC(=O)[C@H](CO)NC(=O)[C@H](Cc1ccc(O)cc1)NC(=O)[C@H](CC(=O)O)NC(=O)[C@H](CO)NC(=O)[C@@H](NC(=O)[C@H](Cc1ccccc1)NC(=O)[C@@H](NC(=O)CNC(=O)[C@H](CCC(=O)O)NC(=O)CSCC(=O)NCCN1CC(=O)NC1=O)[C@@H](C)O)[C@@H](C)O)[C@@H](C)CC)C(C)C)C(N)=O)C(=O)O` [Compound 34], the Emax at GLP-1R [1] (Table 3) is 107%; on GLP-1R [1] (Table 3A), 107%; on GIP-R (Table 3), 20 to 38%; on GIP-R (Table 3A), 20 to 38%. Besides, the EC50 was 0.1 to 1 nM at GLP-1R [1] (setting [3]); 0.1 to 1 nM at GLP-1R [1] (setting [4]); over 1000 nM on GLP-1R [2] (setting [5]); 1 to 10 nM on GIP-R (setting [6]); 1 to 100 nM at GIP-R (setting [7]).

For `CC[C@H](C)[C@H](NC(=O)[C@H](CO)NC(=O)[C@H](Cc1ccc(O)cc1)NC(=O)[C@H](CC(=O)O)NC(=O)[C@H](CO)NC(=O)[C@@H](NC(=O)[C@H](Cc1ccccc1)NC(=O)[C@@H](NC(=O)CNC(=O)[C@H](CCC(=O)O)NC(=O)CCCCC(=O)NCCN1C(=O)CSC1=O)[C@@H](C)O)[C@@H](C)O)C(=O)N[C@@H](Cc1ccc(O)cc1)C(=O)N[C@@H](CC(C)C)C(=O)N[C@@H](CC(=O)O)C(=O)N[C@@H](CCCCN)C(=O)N[C@@H](CCC(N)=O)C(=O)N[C@@H](C)C(=O)N[C@@H](C)C(=O)NC(C)(C)C(=O)N[C@@H](CCC(=O)O)C(=O)N[C@@H](Cc1ccccc1)C(=O)N[C@H](C(=O)N[C@@H](CC(N)=O)C(=O)N[C@@H](Cc1c[nH]c2ccccc12)C(=O)N[C@@H](CC(C)C)C(=O)N[C@@H](CC(C)C)C(=O)N[C@@H](C)C(=O)NCC(=O)NCC(=O)N1CCC[C@H]1C(=O)N[C@@H](CO)C(=O)N[C@@H](CO)C(=O)NCC(=O)N[C@@H](C)C(=O)N1CCC[C@H]1C(=O)N1CCC[C@H]1C(=O)N1CCC[C@H]1C(=O)N[C@@H](CO)C(=O)N[C@@H](CCCCN)C(N)=O)C(C)C` [Compound 191], the Emax on GLP-1R [1] (Table 3) was 97%; at GLP-1R [1] (Table 3A), 97%; on GIP-R (Table 3), 68%; on GIP-R (Table 3A), 68%. The EC50 on GLP-1R [1] (setting [3]) was 1 to 10 nM; at GLP-1R [1] (setting [4]), 1 to 10 nM; at GLP-1R [2] (setting [5]), over 1000 nM; on GIP-R (setting [6]), 10 to 100 nM; on GIP-R (setting [7]) it was 10 to 100 nM.

In the case of `CC[C@H](C)[C@H](NC(=O)[C@H](CO)NC(=O)[C@H](Cc1ccc(O)cc1)NC(=O)[C@H](CC(=O)O)NC(=O)[C@H](CO)NC(=O)[C@@H](NC(=O)[C@H](Cc1ccccc1)NC(=O)[C@@H](NC(=O)CNC(=O)[C@H](CCC(=O)O)NC(=O)C(C)(C)C(=O)NC)[C@@H](C)O)[C@@H](C)O)C(=O)N[C@@H](Cc1ccc(O)cc1)C(=O)N[C@@H](CC(C)C)C(=O)N[C@@H](CC(=O)O)C(=O)N[C@@H](CCCCN)C(=O)N[C@@H](CCC(N)=O)C(=O)N[C@@H](C)C(=O)N[C@@H](C)C(=O)NC(C)(C)C(=O)N[C@@H](CCC(=O)O)C(=O)N[C@@H](Cc1ccccc1)C(=O)N[C@H](C(=O)N[C@@H](CC(N)=O)C(=O)N[C@@H](Cc1c[nH]c2ccccc12)C(=O)N[C@@H](CC(C)C)C(=O)N[C@@H](CC(C)C)C(=O)N[C@@H](C)C(=O)NCC(=O)NCC(=O)N1CCC[C@H]1C(=O)N[C@@H](CO)C(=O)N[C@@H](CO)C(=O)NCC(=O)N[C@@H](C)C(=O)N1CCC[C@H]1C(=O)N1CCC[C@H]1C(=O)N1CCC[C@H]1C(=O)N[C@@H](CO)C(=O)N[C@@H](CCCCN)C(N)=O)C(C)C` [Compound 142], the Emax fell in the range of 101 to 105% on GLP-1R [1] (Table 3), 101 to 105% on GLP-1R [1] (Table 3A), 14.2 to 17% on GIP-R (Table 3) and 14.2 to 17% at GIP-R (Table 3A). The EC50 on GLP-1R [1] (setting [3]) is under 0.1 nM; on GLP-1R [1] (setting [4]) it was under 0.1 nM; at GLP-1R [2] (setting [5]), 10 to 1000 nM; at GIP-R (setting [6]) it was 10 to 100 nM; on GIP-R (setting [7]) it was 100 to 1000 nM.

As to `CC[C@H](C)[C@H](NC(=O)[C@H](CO)NC(=O)[C@H](Cc1ccc(O)cc1)NC(=O)[C@H](CC(=O)O)NC(=O)[C@H](CO)NC(=O)[C@@H](NC(=O)[C@H](Cc1ccccc1)NC(=O)[C@@H](NC(=O)CNC(=O)[C@H](CCC(=O)O)NC(=O)C(C)(C)C(=O)NCCCN1C(=O)c2ccc(C)cc2C1=O)[C@@H](C)O)[C@@H](C)O)C(=O)N[C@@H](Cc1ccc(O)cc1)C(=O)N[C@@H](CC(C)C)C(=O)N[C@@H](CC(=O)O)C(=O)N[C@@H](CCCCN)C(=O)N[C@@H](CCC(N)=O)C(=O)N[C@@H](C)C(=O)N[C@@H](C)C(=O)NC(C)(C)C(=O)N[C@@H](CCC(=O)O)C(=O)N[C@@H](Cc1ccccc1)C(=O)N[C@H](C(=O)N[C@@H](CC(N)=O)C(=O)N[C@@H](Cc1c[nH]c2ccccc12)C(=O)N[C@@H](CC(C)C)C(=O)N[C@@H](CC(C)C)C(=O)N[C@@H](C)C(=O)NCC(=O)NCC(=O)N1CCC[C@H]1C(=O)N[C@@H](CO)C(=O)N[C@@H](CO)C(=O)NCC(=O)N[C@@H](C)C(=O)N1CCC[C@H]1C(=O)N1CCC[C@H]1C(=O)N1CCC[C@H]1C(=O)N[C@@H](CO)C(=O)N[C@@H](CCCCN)C(N)=O)C(C)C` [Compound 129], the Emax on GLP-1R [1] (Table 3) fell in the range of 91 to 95%; at GLP-1R [1] (Table 3A), 91 to 95%; on GIP-R (Table 3), 102 to 109%; on GIP-R (Table 3A), 102 to 109%. Also, the EC50 on GLP-1R [1] (read-out: EC50 GLP-1R/nM, Table 3) is 1 to 100 nM; at GLP-1R [1] (read-out: EC50 GLP-1R/nM, Table 3A), 1 to 100 nM; on GLP-1R [2], over 1000 nM; at GIP-R (read-out: EC50 GIP-R/nM, Table 3), 0.1 to 10 nM; at GIP-R (read-out: EC50 GIP-R/nM, Table 3A) it was 0.1 to 10 nM.

The values above are taken from patent US20260176320A1, “MODULATORS OF G-PROTEIN COUPLED RECEPTORS” (priority 2018, published 2026).
